These results are taken from article PMC7747997 (Plant Communications, 2019).

Common to all, as to assay: X-ray crystal structure, […] Å
Assay type in all cases: binding

The target of experiment [1] is T1, SrUGT76G1 (Stevia rebaudiana, UniProt Q6VAB4).
T1 sequence (Q6VAB4 1-458): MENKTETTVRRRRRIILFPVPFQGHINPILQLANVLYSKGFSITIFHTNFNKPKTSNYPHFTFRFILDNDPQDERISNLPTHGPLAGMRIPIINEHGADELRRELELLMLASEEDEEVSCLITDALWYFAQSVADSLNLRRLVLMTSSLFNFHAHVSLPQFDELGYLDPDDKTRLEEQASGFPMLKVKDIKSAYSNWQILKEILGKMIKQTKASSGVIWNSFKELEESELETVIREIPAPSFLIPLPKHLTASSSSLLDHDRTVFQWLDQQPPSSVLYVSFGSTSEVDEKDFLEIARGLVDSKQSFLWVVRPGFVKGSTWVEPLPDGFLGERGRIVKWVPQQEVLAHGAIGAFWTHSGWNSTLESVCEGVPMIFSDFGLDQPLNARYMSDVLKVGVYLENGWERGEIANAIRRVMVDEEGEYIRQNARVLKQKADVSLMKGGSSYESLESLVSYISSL
The conditions noted are these: donor site; crystals set up with UDP-xylose and Sb.

The target in experiment [2] is T1, SrUGT76G1. The conditions noted are these: donor site; crystals set up with UDP-glucose.
Experiment [3] deals with T1, SrUGT76G1. The conditions noted are these: complex with UDP (crystals set up with UDP-xylose); acceptor pocket.

With `O=c1ccn([C@@H]2O[C@H](COP(=O)(O)OP(=O)(O)O[C@H]3OC[C@@H](O)[C@H](O)[C@H]3O)[C@@H](O)[C@H]2O)c(=O)[nH]1` [UDP-xylose], the “X-ray crystal structure, 2.5 Å” value in experiment [1] is recorded as “UDP-xylose (UDPX-SrUGT76G1)”. As to `O=c1ccn([C@@H]2O[C@H](COP(=O)(O)OP(=O)(O)O)[C@@H](O)[C@H]2O)c(=O)[nH]1` [UDP], the “X-ray crystal structure, 2.6 Å” value in experiment [2] is reported as “we crystallized SrUGT76G1 complexed with UDP (UDP-SrUGT76G1)”. `C=C1C[C@@]23CC[C@H]4[C@@](C)(CCC[C@@]4(C)C(=O)O)[C@@H]2CC[C@]1(O[C@@H]1O[C@H](CO)[C@@H](O)[C@H](O)[C@H]1O)C3` [steviolmonoside]: the “X-ray crystal structure, 2.4 Å” value in experiment [3] is “UDP and steviolmonoside (UDP-Sm-SrUGT76G1)”.
